Assay results from patent publication US20250176599A1, “FLAVOR COMPOSITION AND FOOD AND BEVERAGE” (TAKASAGO INTERNATIONAL CORPORATION, priority 2021, published 2025).

Assays:
[1] = Sensory evaluation of aqueous solution I containing (E)-2-nonenal 1 ppb: off-flavor intensity and masking component intensity; details: (E)-2-nonenal 1 ppb, average score 0-4
How it was run: (§1)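 Degradation component dissolved in ion-exchanged water; nootkatone then added. Eight experienced panelists tasted each sample, rating off-flavor (0 not sensed to 4 strongly sensed) relative to the masker-free solution set at 4 and water at 0, and masker intensity on an absolute 0–4 scale.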

[2] = Sensory evaluation of aqueous solution II containing (E)-2-octenal 10 ppb: off-flavor intensity and masking component intensity; details: (E)-2-octenal 10 ppb, average score 0-4
How it was run: as §1

[3] = Sensory evaluation of aqueous solution III containing 1-octen-3-one 1 ppb: off-flavor intensity and masking component intensity; details: 1-octen-3-one 1 ppb, average score 0-4
How it was run: as §1

[4] = Sensory evaluation of aqueous solution IV containing 1,5-octadien-3-one 100 ppt: off-flavor intensity and masking component intensity; details: aqueous solution IV, 1,5-octadien-3-one 100 ppt, average score 0-4
How it was run: as §1

[5] = Sensory evaluation of aqueous solution V containing 1-octen-3-ol 10 ppb: off-flavor intensity and masking component intensity; details: 1-octen-3-ol 10 ppb, average score 0-4
How it was run: as §1

[6] = Sensory evaluation of aqueous solution VI containing 1,5-octadien-3-ol 10 ppb: off-flavor intensity and masking component intensity; details: aqueous solution VI, 1,5-octadien-3-ol 10 ppb, average score 0-4
How it was run: as §1

[7] = Sensory evaluation of degradation component-added mayonnaise I (1-octen-3-ol 200 ppb); details: average panel score
Protocol: (§2) To commercially available mayonnaise (“Kewpie Mayonnaise” manufactured by Kewpie Corporation), each degradation component was added to prepare degradation component-added mayonnaises I and II at the concentrations listed in Table 20. To these degradation component-added mayonnaises, oleic acid was added at the concentrations listed in Table 21 to confirm the intensity of the off-flavor (masking effect) and the intensity of the masking components (impact on the flavor of the mayonnaise itself) for each sample.
(§3) Six experienced panelists were selected to conduct a sensory evaluation similar to that of Example 1.

[8] = Overall conclusion of the sensory evaluation across aqueous solutions I to VI
How it was run: as §1

[9] = Overall conclusion of the sensory evaluation across mayonnaises I and II
Protocol: as §2, §3

CCCCCCCC/C=C\CCCCCCCC(=O)O [Oleic Acid, oleic acid]
Off-Flavor Intensity ([1]; 1 ppm added): 1.8 points
Off-Flavor Intensity ([1]; 5 ppm added): 1.4 points
Off-Flavor Intensity ([1]; 10 ppb added): 3.5 points
Off-Flavor Intensity ([1]; 10 ppm added): 1.3 points
Off-Flavor Intensity ([1]; 50 ppb added): 3.1 points
Off-Flavor Intensity ([1]; 100 ppb added): 2.8 points
Off-Flavor Intensity ([1]; 500 ppb added): 2.4 points
Off-Flavor Intensity ([2]; 1 ppm added): 1.6 points
Off-Flavor Intensity ([2]; 5 ppm added): 1.1 points
Off-Flavor Intensity ([2]; 10 ppb added): 2.8 points
Off-Flavor Intensity ([2]; 10 ppm added): 1.1 points
Off-Flavor Intensity ([2]; 50 ppb added): 2.5 points
Off-Flavor Intensity ([2]; 100 ppb added): 1.9 points
Off-Flavor Intensity ([2]; 500 ppb added): 1.5 points
Off-Flavor Intensity ([3]; 1 ppm added): 2.8 points
Off-Flavor Intensity ([3]; 5 ppm added): 2.4 points
Off-Flavor Intensity ([3]; 10 ppb added): 3.5 points
Off-Flavor Intensity ([3]; 10 ppm added): 1.9 points
Off-Flavor Intensity ([3]; 50 ppb added): 3.4 points
Off-Flavor Intensity ([3]; 100 ppb added): 3.3 points
Off-Flavor Intensity ([3]; 500 ppb added): 2.5 points
Off-Flavor Intensity ([4]; 1 ppm added): 2.0 points
Off-Flavor Intensity ([4]; 5 ppm added): 1.9 points
Off-Flavor Intensity ([4]; 10 ppb added): 3.4 points
Off-Flavor Intensity ([4]; 10 ppm added): 1.5 points
Off-Flavor Intensity ([4]; 50 ppb added): 3.3 points
Off-Flavor Intensity ([4]; 100 ppb added): 2.9 points
Off-Flavor Intensity ([4]; 500 ppb added): 2.5 points
Off-Flavor Intensity ([5]; 1 ppm added): 1.9 points
Off-Flavor Intensity ([5]; 5 ppm added): 1.8 points
Off-Flavor Intensity ([5]; 10 ppb added): 3.4 points
Off-Flavor Intensity ([5]; 10 ppm added): 1.1 points
Off-Flavor Intensity ([5]; 50 ppb added): 2.6 points
Off-Flavor Intensity ([5]; 100 ppb added): 2.9 points
Off-Flavor Intensity ([5]; 500 ppb added): 2.3 points
Off-Flavor Intensity ([6]; 1 ppm added): 1.3 points
Off-Flavor Intensity ([6]; 5 ppm added): 1.5 points
Off-Flavor Intensity ([6]; 10 ppb added): 2.6 points
Off-Flavor Intensity ([6]; 10 ppm added): 1.3 points
Off-Flavor Intensity ([6]; 50 ppb added): 2.4 points
Off-Flavor Intensity ([6]; 100 ppb added): 1.9 points
Off-Flavor Intensity ([6]; 500 ppb added): 1.6 points
Masking Component Intensity ([7]; 1 ppm added): 0.3
Off-Flavor Intensity ([7]; 1 ppm added): 1.8
Masking Component Intensity ([7]; 5 ppm added): 0.7
Off-Flavor Intensity ([7]; 5 ppm added): 1.7
Masking Component Intensity ([7]; 10 ppm added): 0.8
Off-Flavor Intensity ([7]; 10 ppm added): 1.2
Masking Component Intensity ([7]; 50 ppm added): 1.7
Off-Flavor Intensity ([7]; 50 ppm added): 0.8
Masking Component Intensity ([7]; 100 ppb added): 0.0
Off-Flavor Intensity ([7]; 100 ppb added): 3.3
Masking Component Intensity ([7]; 100 ppm added): 2.2
Off-Flavor Intensity ([7]; 100 ppm added): 0.5
Masking Component Intensity ([7]; 500 ppb added): 0.2
Off-Flavor Intensity ([7]; 500 ppb added): 2.5
concentration that masks the off-flavor and does not affect the flavor of the food and/or beverage itself, lower limit [8]: ≥ 10 ppb
concentration that masks the off-flavor and does not affect the flavor of the food and/or beverage itself, upper limit [8]: ≤ 10 ppm
concentration that masks the off-flavor and does not affect the flavor of the mayonnaise itself, lower limit [9]: ≥ 500 ppb
concentration that masks the off-flavor and does not affect the flavor of the mayonnaise itself, upper limit [9]: ≤ 100 ppm
